Experimental findings from article PMC7076013 (Scientific Reports, 2020) are described below.

This test deals with A375 cells. The experiment in a line: Scratch (wound healing) test, A375. The class given is cell-based, human. The conditions noted are these: A375, treated cells, IC50 dose, 48 h; control decreased from 172 ± 69 to 127 ± 13. The procedure: It was observed that the wound in the control of the A375 cells decreased from 172 ± 69 μm to 127 ± 13 μm, compared to the treated cells where it stayed at 177 ± 32 μm. […] (Fig. 10A).To confirm this, the cell proliferation rate was determined after 72 h of incubation in the presence of 5 of the carboxyfluorescein succinimidyl ester (CFSE)-stained cells. […] These findings were further confirmed by fluorescence microscopy of 4′,6-diamidino-2-phenylindole (DAPI)-stained cells (Fig. 10C), for which predominantly large nuclei with scarce nucleoli characteristic for interphase were observed on treatment of A375 cells with 5[60]. In addition, sporadic oblong nuclei with condensed chromatin, typical for apoptosis, were also observed (25 ± 9%). On the other hand in the DAPI-stained 518A2 cells typical apoptotic shrunken nuclei and apoptotic bodies were dominant (60 ± 2%)[61]. The different modes of action on the two melanoma cell lines indicate that cell specific characteristics define the outcome of the treatment with 5. […] Recent data on the compensatory proliferation in response to induced apoptotic cell death in the tumor tissue even favor a nonaggressive approach in the therapy of advanced malignancy. […]
To quantify cell division rate, cells were incubated for 10 min at 37 °C in the presence of […]
subsequentl y quantified using flow c ytomet r y. […]

Consider “4-[4-(methylnitrooxy)phenyl]-3-(1,2-dicarba-closo-dodecaboranyl)furan-2(5 H)-one [Compound 5]”, for which the “wound width in scratch test” value is 177 ± 32 μm.
